Data published in ChEMBL document CHEMBL3044725, “Structure-based molecular design, synthesis, and in vivo anti-inflammatory activity of pyridazinone derivatives as nonclassic COX-2 inhibitors” (2010).

Experiments:
Format in all cases: functional
Settings in all cases: route subcutaneous
[1] = tested on: Rattus norvegicus; test: Anti-inflammatory activity in Rattus norvegicus albino (rat) assessed as reduction in carrageenan-induced paw volume at 5 mg/kg, sc pretreated 2 hr before carrageenan challenge measured after 1 hr by plethysmometer (reference value: 1.95 +/- 0.03 to 2 ml)
[2] = tested on: Rattus norvegicus; test: Anti-inflammatory activity in Rattus norvegicus albino (rat) assessed as reduction in carrageenan-induced paw volume at 5 mg/kg, sc pretreated 1 hr before carrageenan challenge measured after 1 hr by plethysmometer (reference value: 1.95 +/- 0.03 to 2 ml)
[3] = tested on: Rattus norvegicus; test: Anti-inflammatory activity in Rattus norvegicus albino (rat) assessed as reduction in carrageenan-induced paw volume at 5 mg/kg, sc pretreated 4 hr before carrageenan challenge measured after 1 hr by plethysmometer (reference value: 1.95 +/- 0.03 to 2 ml)
[4] = tested on: Rattus norvegicus; test: Anti-inflammatory activity in Rattus norvegicus albino (rat) assessed as reduction in carrageenan-induced paw volume at 5 mg/kg, sc pretreated 3 hr before carrageenan challenge measured after 1 hr by plethysmometer (reference value: 1.95 +/- 0.03 to 2 ml)

SMILES	Activity [1] [mL]	Activity [2] [mL]	Activity [3] [mL]	Activity [4] [mL]
O=c1ccc(-c2nc3ccccc3nc2-c2ccccc2)n[nH]1	1.37	1.97	0.38	1
O=c1ccc(-c2nc3ccccc3nc2-c2ccc(Cl)cc2)n[nH]1	0.95	1.48	0.03	0.55
COc1ccc(-c2nc3ccccc3nc2-c2ccc(=O)[nH]n2)cc1	1.5	1.55	1.27	1.38
O=c1ccc(C2Nc3ccccc3NC2c2ccccc2)n[nH]1 (stereo not drawn)	2.02	2	2.07	2
O=c1ccc(C2Nc3ccccc3NC2c2ccc(Cl)cc2)n[nH]1 (stereo not drawn)	1.93	1.93	2.12	2
COc1ccc(C2Nc3ccccc3NC2c2ccc(=O)[nH]n2)cc1 (stereo not drawn)	1.42	1.58	1.32	1.38
O=C(O)Cc1ccccc1Nc1c(Cl)cccc1Cl [DICLOFENAC]	0.57	0.92	0.03	0.3
